According to patent publication US20260315464A1, “COMPOSITIONS, METHODS, AND SYSTEMS FOR MODULATING SPLICING OF MSH3” (REVIR THERAPEUTICS, INC., priority 2023, published 2026):

Test system: MSH3
Test: QPCR assay for levels of MSH3 upon compound treatment in HEK293T or AD293 cells (fold-change of MSH3 transcript, EC50 of MSH3 downregulation; total MSH3 exons 13/14, exons 20/21; Table 8)
Format: cell-based
Conditions: for EC50: EC50 of MSH3 downregulation, XtalPi; for mrna remaining at 1 µM / mrna remaining at 10 µM: Homo sapiens, fold-change of the MSH3 transcript, normalized to GAPDH; for mrna remaining at 1 µM: 1 μM compound; for mrna remaining at 10 µM: 10 μM compound
Summary of the method: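 HEK293T or AD293 cells were treated at 1 μM and […]; RNA-to-cDNA qPCR used TaqMan assays for total MSH3 (exons 13/14, exons 20/21) and poison-exon junctions exon 13/PE14A and exon 20/PE21A. Transcript levels were normalized to GAPDH.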

SMILES	EC50 [nM]	mrna remaining at 1 µM [%]	mrna remaining at 10 µM [%]
Cc1nn(C)cc1-c1cnc2c(n1)C(=O)N(c1ccc(N(C)[C@H]3C[C@]4(C)CC[C@](C)(C3)N4)nn1)C2 [Compound 496, 3-(1,3-dimethyl-1H-pyrazol-4-yl)-6-(6-(((1R,3s,5S)-1,5-dimethyl-8-azabicyclo[3.2.1]octan-3-yl)(methyl)amino)pyridazin-3-yl)-6,7-dihydro-5H-pyrrolo[3,4-b]pyrazin-5-one]	690	–	–
Cc1nn(C)cc1-c1cnc2c(c1)C(=O)N(c1ccc(OC3CC(C)(C)NC4(CC4)C3)nn1)C2 (stereo not shown) [Compound 205, 3-(1,3-dimethyl-1H-pyrazol-4-yl)-6-(6-((5,5-dimethyl-4-azaspiro[2.5]octan-7-yl)oxy)pyridazin-3-yl)-6,7-dihydro-5H-pyrrolo[3,4-b]pyridin-5-one]	1420	90	14
Cc1nn(C)nc1-c1cnc2c(c1)C(=O)N(c1ccc(N3C[C@H]4CC[C@@H](C3)N4)nn1)C2 [Compound 568, 6-(6-((1R,5S)-3,8-diazabicyclo[3.2.1]octan-3-yl)pyridazin-3-yl)-3-(2,5-dimethyl-2H-1,2,3-triazol-4-yl)-6,7-dihydro-5H-pyrrolo[3,4-b]pyridin-5-one]	–	77	46
Cn1nc(Cl)c(-c2cc(F)c3c(c2)C(=O)N(c2ccc(N4CCC5CCC(C4)N5)nn2)C3)n1 (stereo not shown) [Compound 659, 2-(6-(3,9-diazabicyclo[4.2.1]nonan-3-yl)pyridazin-3-yl)-6-(5-chloro-2-methyl-2H-1,2,3-triazol-4-yl)-4-fluoroisoindolin-1-one]	–	142	57
Cn1ncc(-c2ccc3c(c2)C(=O)N(c2ccc(O[C@H]4C[C@]5(C)CC[C@](C)(C4)N5)nn2)C3)n1 [Compound 425, 2-(6-(((1R,3s,5S)-1,5-dimethyl-8-azabicyclo[3.2.1]octan-3-yl)oxy)pyridazin-3-yl)-6-(2-methyl-2H-1,2,3-triazol-4-yl)isoindolin-1-one]	–	82	70
Cc1nn(C)cc1-c1cnc2c(c1)C(=O)N(c1ccc(O[C@@H]3CC(C)(C)NC(C)(C)[C@@H]3F)nn1)C2 [Compound 211, 3-(1,3-dimethyl-1H-pyrazol-4-yl)-6-(6-(((3S,4R)-3-fluoro-2,2,6,6-tetramethylpiperidin-4-yl)oxy)pyridazin-3-yl)-6,7-dihydro-5H-pyrrolo[3,4-b]pyridin-5-one]	–	90	55
Cc1nn(C)nc1-c1cnc2c(n1)C(=O)N(c1ccc(OC3CC(C)(C)NC4(CCC4)C3)nn1)C2 (stereo not shown) [Compound 500, 3-(2,5-dimethyl-2H-1,2,3-triazol-4-yl)-6-(6-((6,6-dimethyl-5-azaspiro[3.5]nonan-8-yl)oxy)pyridazin-3-yl)-6,7-dihydro-5H-pyrrolo[3,4-b]pyrazin-5-one]	–	101	22
Cc1nn(C)nc1-c1ccc2c(c1)C(=O)N(c1ccc(O[C@H]3C[C@]4(C)CC[C@](C)(C3)N4)nn1)C2 [Compound 439, 6-(2,5-dimethyl-2H-1,2,3-triazol-4-yl)-2-(6-(((1R,3s,5S)-1,5-dimethyl-8-azabicyclo[3.2.1]octan-3-yl)oxy)pyridazin-3-yl)isoindolin-1-one]	–	87	72
Cc1nn(C)nc1-c1cnc2c(c1)C(=O)N(c1ccc(O[C@H]3C[C@]4(C)CC[C@](C)(C3)N4)nn1)C2 [Compound 206, 3-(2,5-dimethyl-2H-1,2,3-triazol-4-yl)-6-(6-(((1R,3s,5S)-1,5-dimethyl-8-azabicyclo[3.2.1]octan-3-yl)oxy)pyridazin-3-yl)-6,7-dihydro-5H-pyrrolo[3,4-b]pyridin-5-one]	507	36	13
